From PubChem BioAssay (NCI)
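These data come from cells grown in 96-well plates and exposed to compound for 48 hours at five concentrations. TGI: concentration producing complete growth inhibition.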

What was measured:
Experiment in all cases: growth of human tumour cells (NCI), 48 h
HL-60(TB) leukemia = test system: HL-60(TB) leukemia
SR leukemia = test system: SR leukemia
ACHN renal = test system: ACHN renal
HOP-18 NSCLC = test system: HOP-18 NSCLC
K-562 leukemia = test system: K-562 leukemia
SK-MEL-5 melanoma = test system: SK-MEL-5 melanoma
LOX IMVI melanoma = test system: LOX IMVI melanoma
DMS 273 small cell lung = test system: DMS 273 small cell lung
NCI-H460 lung = test system: NCI-H460 lung
OVCAR-8 ovarian = test system: OVCAR-8 ovarian
DLD-1 colon = test system: DLD-1 colon
A498 renal = test system: A498 renal
EKVX NSCLC = test system: EKVX NSCLC
SN12C renal = test system: SN12C renal
M19-MEL melanoma = test system: M19-MEL melanoma
IGROV1 ovarian = test system: IGROV1 ovarian
NCI-H23 lung = test system: NCI-H23 lung
TK-10 renal = test system: TK-10 renal
LXFL 529 NSCLC = test system: LXFL 529 NSCLC
786-0 renal = test system: 786-0 renal
HCC-2998 colon = test system: HCC-2998 colon
SNB-78 CNS = test system: SNB-78 CNS
CCRF-CEM leukemia = test system: CCRF-CEM leukemia
KM12 colon = test system: KM12 colon
OVCAR-3 ovarian = test system: OVCAR-3 ovarian
DMS 114 small cell lung = test system: DMS 114 small cell lung
SF-268 CNS = test system: SF-268 CNS
SK-OV-3 ovarian = test system: SK-OV-3 ovarian
RXF 393 renal = test system: RXF 393 renal
UACC-62 melanoma = test system: UACC-62 melanoma
HCT-15 colon = test system: HCT-15 colon
RPMI-8226 leukemia = test system: RPMI-8226 leukemia
SNB-75 CNS = test system: SNB-75 CNS
NCI-H226 lung = test system: NCI-H226 lung
A549 NSCLC = test system: A549 NSCLC
COLO 205 colon = test system: COLO 205 colon
OVCAR-5 ovarian = test system: OVCAR-5 ovarian
U251 CNS = test system: U251 CNS
MALME-3M melanoma = test system: MALME-3M melanoma
SF-539 CNS = test system: SF-539 CNS
HT29 colon = test system: HT29 colon
M14 melanoma = test system: M14 melanoma
UO-31 renal = test system: UO-31 renal
RXF-631 renal = test system: RXF-631 renal
MOLT-4 leukemia = test system: MOLT-4 leukemia
SNB-19 CNS = test system: SNB-19 CNS
OVCAR-4 ovarian = test system: OVCAR-4 ovarian
SW-620 colon = test system: SW-620 colon
SF-295 CNS = test system: SF-295 CNS
SK-MEL-28 melanoma = test system: SK-MEL-28 melanoma
HOP-92 NSCLC = test system: HOP-92 NSCLC
KM20L2 colon = test system: KM20L2 colon
SK-MEL-2 melanoma = test system: SK-MEL-2 melanoma
HOP-62 NSCLC = test system: HOP-62 NSCLC
UACC-257 melanoma = test system: UACC-257 melanoma
CAKI-1 renal = test system: CAKI-1 renal
NCI-H522 lung = test system: NCI-H522 lung
HCT-116 colon = test system: HCT-116 colon

SMILES: O=C1C2c3[nH]c4ccccc4c3C3CCCCC3C2C(=O)N1c1ccccc1 (configuration not stated)
- TGI (HL-60(TB) leukemia): > 100 µM
- TGI (SR leukemia): > 100 µM
- TGI (ACHN renal): > 100 µM
- TGI (HOP-18 NSCLC): 95.2 µM
- TGI (K-562 leukemia): > 100 µM
- TGI (SK-MEL-5 melanoma): > 100 µM
- TGI (LOX IMVI melanoma): > 100 µM
- TGI (DMS 273 small cell lung): > 100 µM
- TGI (NCI-H460 lung): > 100 µM
- TGI (OVCAR-8 ovarian): > 100 µM
- TGI (DLD-1 colon): > 100 µM
- TGI (A498 renal): > 100 µM
- TGI (EKVX NSCLC): > 100 µM
- TGI (SN12C renal): > 100 µM
- TGI (M19-MEL melanoma): > 100 µM
- TGI (IGROV1 ovarian): > 100 µM
- TGI (NCI-H23 lung): > 100 µM
- TGI (TK-10 renal): > 100 µM
- TGI (LXFL 529 NSCLC): > 100 µM
- TGI (786-0 renal): > 100 µM
- TGI (HCC-2998 colon): > 100 µM
- TGI (SNB-78 CNS): > 100 µM
- TGI (CCRF-CEM leukemia): > 100 µM
- TGI (KM12 colon): > 100 µM
- TGI (OVCAR-3 ovarian): > 100 µM
- TGI (DMS 114 small cell lung): > 100 µM
- TGI (SF-268 CNS): > 100 µM
- TGI (SK-OV-3 ovarian): 52.4 µM
- TGI (RXF 393 renal): 62.3 µM
- TGI (UACC-62 melanoma): > 100 µM
- TGI (HCT-15 colon): > 100 µM
- TGI (RPMI-8226 leukemia): > 100 µM
- TGI (SNB-75 CNS): 32.9 µM
- TGI (NCI-H226 lung): > 100 µM
- TGI (A549 NSCLC): > 100 µM
- TGI (COLO 205 colon): > 100 µM
- TGI (OVCAR-5 ovarian): > 100 µM
- TGI (U251 CNS): > 100 µM
- TGI (MALME-3M melanoma): > 100 µM
- TGI (SF-539 CNS): > 100 µM
- TGI (HT29 colon): > 100 µM
- TGI (M14 melanoma): > 100 µM
- TGI (UO-31 renal): > 100 µM
- TGI (RXF-631 renal): > 100 µM
- TGI (MOLT-4 leukemia): > 100 µM
- TGI (SNB-19 CNS): > 100 µM
- TGI (OVCAR-4 ovarian): > 100 µM
- TGI (SW-620 colon): > 100 µM
- TGI (SF-295 CNS): > 100 µM
- TGI (SK-MEL-28 melanoma): > 100 µM

SMILES: N#CC(C#N)=C1NN=C(Cl)c2ccccc21
- TGI (HL-60(TB) leukemia): > 100 µM
- TGI (ACHN renal): > 100 µM
- TGI (HOP-18 NSCLC): > 100 µM
- TGI (K-562 leukemia): > 100 µM
- TGI (SK-MEL-5 melanoma): > 100 µM
- TGI (LOX IMVI melanoma): > 100 µM
- TGI (HOP-92 NSCLC): > 100 µM
- TGI (KM20L2 colon): > 100 µM
- TGI (DMS 273 small cell lung): > 100 µM
- TGI (NCI-H460 lung): > 100 µM
- TGI (OVCAR-8 ovarian): > 100 µM
- TGI (DLD-1 colon): > 100 µM
- TGI (EKVX NSCLC): > 100 µM
- TGI (SK-MEL-2 melanoma): > 100 µM
- TGI (SN12C renal): > 100 µM
- TGI (M19-MEL melanoma): > 100 µM
- TGI (HOP-62 NSCLC): > 100 µM
- TGI (IGROV1 ovarian): > 100 µM
- TGI (NCI-H23 lung): > 100 µM
- TGI (TK-10 renal): > 100 µM
- TGI (LXFL 529 NSCLC): > 100 µM
- TGI (786-0 renal): > 100 µM
- TGI (UACC-257 melanoma): > 100 µM
- TGI (CAKI-1 renal): > 100 µM
- TGI (HCC-2998 colon): > 100 µM
- TGI (NCI-H522 lung): > 100 µM
- TGI (CCRF-CEM leukemia): > 100 µM
- TGI (KM12 colon): > 100 µM
- TGI (OVCAR-3 ovarian): > 100 µM
- TGI (DMS 114 small cell lung): > 100 µM
- TGI (SF-268 CNS): > 100 µM
- TGI (SK-OV-3 ovarian): > 100 µM
- TGI (RXF 393 renal): > 100 µM
- TGI (UACC-62 melanoma): > 100 µM
- TGI (HCT-15 colon): > 100 µM
- TGI (RPMI-8226 leukemia): > 100 µM
- TGI (SNB-75 CNS): > 100 µM
- TGI (A549 NSCLC): > 100 µM
- TGI (COLO 205 colon): > 100 µM
- TGI (OVCAR-5 ovarian): > 100 µM
- TGI (U251 CNS): > 100 µM
- TGI (MALME-3M melanoma): > 100 µM
- TGI (SF-539 CNS): > 100 µM
- TGI (HT29 colon): > 100 µM
- TGI (M14 melanoma): > 100 µM
- TGI (UO-31 renal): > 100 µM
- TGI (RXF-631 renal): > 100 µM
- TGI (MOLT-4 leukemia): > 100 µM
- TGI (OVCAR-4 ovarian): > 100 µM
- TGI (SW-620 colon): > 100 µM
- TGI (SF-295 CNS): > 100 µM
- TGI (SK-MEL-28 melanoma): > 100 µM

SMILES: CCOc1ccc(NC(=O)/C(=C\c2ccc(C)cc2)C(C)=O)cc1
- TGI (HL-60(TB) leukemia): > 100 µM
- TGI (SR leukemia): > 100 µM
- TGI (ACHN renal): > 100 µM
- TGI (HOP-18 NSCLC): > 100 µM
- TGI (K-562 leukemia): > 100 µM
- TGI (SK-MEL-5 melanoma): > 100 µM
- TGI (LOX IMVI melanoma): > 100 µM
- TGI (HOP-92 NSCLC): > 100 µM
- TGI (KM20L2 colon): > 100 µM
- TGI (DMS 273 small cell lung): > 100 µM
- TGI (OVCAR-8 ovarian): > 100 µM
- TGI (DLD-1 colon): > 100 µM
- TGI (A498 renal): > 100 µM
- TGI (EKVX NSCLC): > 100 µM
- TGI (SK-MEL-2 melanoma): > 100 µM
- TGI (SN12C renal): > 100 µM
- TGI (M19-MEL melanoma): > 100 µM
- TGI (HOP-62 NSCLC): > 100 µM
- TGI (IGROV1 ovarian): > 100 µM
- TGI (NCI-H23 lung): > 100 µM
- TGI (TK-10 renal): > 100 µM
- TGI (LXFL 529 NSCLC): > 100 µM
- TGI (786-0 renal): > 100 µM
- TGI (UACC-257 melanoma): > 100 µM
- TGI (CAKI-1 renal): > 100 µM
- TGI (HCC-2998 colon): > 100 µM
- TGI (SNB-78 CNS): > 100 µM
- TGI (NCI-H522 lung): > 100 µM
- TGI (CCRF-CEM leukemia): > 100 µM
- TGI (OVCAR-3 ovarian): > 100 µM
- TGI (DMS 114 small cell lung): > 100 µM
- TGI (SF-268 CNS): > 100 µM
- TGI (SK-OV-3 ovarian): > 100 µM
- TGI (UACC-62 melanoma): > 100 µM
- TGI (HCT-15 colon): > 100 µM
- TGI (RPMI-8226 leukemia): > 100 µM
- TGI (SNB-75 CNS): > 100 µM
- TGI (NCI-H226 lung): > 100 µM
- TGI (A549 NSCLC): > 100 µM
- TGI (COLO 205 colon): > 100 µM
- TGI (OVCAR-5 ovarian): > 100 µM
- TGI (U251 CNS): > 100 µM
- TGI (MALME-3M melanoma): > 100 µM
- TGI (SF-539 CNS): > 100 µM
- TGI (HT29 colon): > 100 µM
- TGI (M14 melanoma): > 100 µM
- TGI (UO-31 renal): > 100 µM
- TGI (RXF-631 renal): > 100 µM
- TGI (MOLT-4 leukemia): > 100 µM
- TGI (HCT-116 colon): > 100 µM
- TGI (SNB-19 CNS): > 100 µM
- TGI (OVCAR-4 ovarian): > 100 µM
- TGI (SW-620 colon): > 100 µM
- TGI (SF-295 CNS): > 100 µM
- TGI (SK-MEL-28 melanoma): > 100 µM
